Results on 4 molecules are retold here after the NIST ThermoML archive (doi:10.1021/acs.jced.6b00794).

Numbers after ± are expanded uncertainties.

A short description of this data set: refractive index (Na D-line) (dimensionless). The note with it: 293.15 K; 101.33 kPa; Liquid; Standard Abbe refractometry.
In the case of `CC(=O)O` [acetic acid], the refractive index (in general, the speed of light in vacuum divided by its phase velocity in the sample) is listed as 1.3717 ± 0.0024.
In the case of `CCO` [ethanol], the refractive index was found to be 1.3616 ± 0.0024.
With `C=COC(C)=O` [vinyl acetate] the figure was 1.3926 ± 0.0024; with `O` [water], 1.3328 ± 0.0024.
